The values that follow come from patent US20250235460A1, “COMBINATION THERAPY USING GLUCOSE-DEPENDENT INSULINOTROPIC POLYPEPTIDE RECEPTOR ANTAGONIST COMPOUNDS AND GLP-1 RECEPTOR AGONIST COMPOUNDS” (Pfizer Inc., priority 2024, published 2025).

Where only a bound is given, the exact number is not on record here.

Assay [1] has as its target human GLP-1R (Homo sapiens, UniProt P43220, L260F). Nature of the assay: CHO GLP-1R Clone C6 cAMP HTRF agonist assay (Assay 2, low receptor density). The class given is cell-based. To be noted: CHO GLP-1R clone C6; arithmetic mean, relative to saturating GLP-1 (1 μM). An excerpt:
In Table 5 and Table 6, assay data are presented to two (2) significant figures as the geometric mean (EC50s) and arithmetic mean (Emax) based on the number of replicates listed (Number). A blank cell means there was no data for that Example or the Emax was not calculated.
Background: TR-FRET usually uses a lanthanide donor and a delayed reading to cut background.

Assay [2] deals with human GLP-1R (Homo sapiens, UniProt P43220, G168S). Nature of the assay: CHO GLP-1R Clone H6 cAMP HTRF agonist assay (Assay 1, high receptor density). Format: cell-based. Conditions: for EC50: CHO GLP-1R clone H6, cAMP HTRF, geometric mean; for Emax: CHO GLP-1R clone H6, arithmetic mean, relative to saturating GLP-1 (1 μM), read-out: Assay 1 Emax (%). An outline of the steps: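 From replicate determinations, mean EC50 (geometric) and mean Emax (arithmetic) were derived and expressed to two significant figures.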
Sequence of human GLP-1R (Homo sapiens, UniProt P43220, G168S) (P43220 24-463 G168S): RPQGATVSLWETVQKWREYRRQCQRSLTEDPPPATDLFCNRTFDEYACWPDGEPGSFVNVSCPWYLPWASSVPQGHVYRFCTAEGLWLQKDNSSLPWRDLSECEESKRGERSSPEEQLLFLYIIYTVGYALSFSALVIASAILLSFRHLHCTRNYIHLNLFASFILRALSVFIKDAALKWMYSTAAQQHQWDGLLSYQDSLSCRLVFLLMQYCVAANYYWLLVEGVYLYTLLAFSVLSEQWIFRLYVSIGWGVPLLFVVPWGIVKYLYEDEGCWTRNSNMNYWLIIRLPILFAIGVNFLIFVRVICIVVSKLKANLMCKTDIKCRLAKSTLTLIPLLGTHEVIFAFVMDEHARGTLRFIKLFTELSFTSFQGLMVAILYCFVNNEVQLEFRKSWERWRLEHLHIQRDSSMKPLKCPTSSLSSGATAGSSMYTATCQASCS

Sequence of human GLP-1R (Homo sapiens, UniProt P43220, L260F) (P43220 24-463 L260F): as the sequence (P43220 24-463 G168S) above, with S145G, L237F counted along it

The Emax is the size of the effect at its maximum, as opposed to the concentration needed. On to `N#Cc1ccc(COc2cccc(C3CCN(Cc4nc5ccc(C(=O)O)cc5n4C[C@@H]4CCO4)CC3)n2)c(F)c1` [Compound 110B, 2-[(4-{6-[(4-cyano-2-fluorobenzyl)oxy]pyridin-2-yl}piperidin-1-yl)methyl]-1-[(2S)-oxetan-2-ylmethyl]-1H-benzimidazole-6-carboxylic acid], for which the Emax in assay [1] amounted to 82%.

As usually defined, the EC50 is the concentration needed to bring the measured effect to its halfway point. Higher therefore signals lower potency in that assay. In the case of `C[C@H]1CN(c2cccc(OCc3ccc(Cl)cc3F)n2)CCN1Cc1nc2ccc(C(=O)O)cc2n1Cc1cnco1` [Compound 147B, 2-{[(2S)-4-{6-[(4-chloro-2-fluorobenzyl)oxy]pyridin-2-yl}-2-methylpiperazin-1-yl]methyl}-1-(1,3-oxazol-5-ylmethyl)-1H-benzimidazole-6-carboxylic acid], in assay [2], the 50% effective concentration (EC50) stood at 210 nM and the Emax is 79%.

`O=C(O)c1ccc2nc(CN3CCC(c4cccc(OCc5ccc(Cl)cc5F)n4)CC3)n(CCn3cccn3)c2c1` [Compound 303B, 2-[(4-{6-[(4-chloro-2-fluorobenzyl)oxy]pyridin-2-yl}piperidin-1-yl)methyl]-1-[2-(1H-pyrazol-1-yl)ethyl]-1H-benzimidazole-6-carboxylic acid]: in assay [2], the EC50 is 170 nM. In other words, the sub-micromolar range.

As for `COCCn1c(CN2CCN(c3cccc(OCc4ccc(Cl)cc4F)n3)C[C@@H]2C2CC2)nc2ccc(C(=O)O)cc21` [Compound 350B, 2-{[(2S)-4-{6-[(4-chloro-2-fluorobenzyl)oxy]pyridin-2-yl}-2-cyclopropylpiperazin-1-yl]methyl}-1-(2-methoxyethyl)-1H-benzimidazole-6-carboxylic acid], in assay [2], the EC50 stood at 420 nM and the Emax was 81%.

Regarding `C[C@H]1CN(c2cccc(OCc3ccc(C#N)cc3F)n2)CCN1Cc1nc2ccc(C(=O)O)cc2n1C[C@H]1CCOC1` [Compound 267B, 2-{[(2S)-4-{6-[(4-cyano-2-fluorobenzyl)oxy]pyridin-2-yl}-2-methylpiperazin-1-yl]methyl}-1-[(3R)-tetrahydrofuran-3-ylmethyl]-1H-benzimidazole-6-carboxylic acid], in assay [2], the EC50 was more than 19000 nM and the maximum response (Emax) turned out to be 100%.

With `Cc1nc(Cn2c(CN3CCC(c4cccc(OCc5ccc(Cl)cc5F)n4)CC3)nc3ccc(C(=O)O)cc32)c(C)o1` [Compound 330B, 2-[(4-{6-[(4-chloro-2-fluorobenzyl)oxy]pyridin-2-yl}piperidin-1-yl)methyl]-1-[(2,5-dimethyl-1,3-oxazol-4-yl)methyl]-1H-benzimidazole-6-carboxylic acid], in assay [2], a half-maximal effect (EC50) was put at 9300 nM and the maximal effect (Emax) worked out at 100%.

On to `CC(c1nncn1C)n1c(CN2CCC(c3cccc(OCc4ccc(Cl)cc4F)n3)CC2)nc2ccc(C(=O)O)cc21` (stereo not drawn) [Compound 327B, 2-[(4-{6-[(4-chloro-2-fluorobenzyl)oxy]pyridin-2-yl}piperidin-1-yl)methyl]-1-[1-(4-methyl-4H-1,2,4-triazol-3-yl)ethyl]-1H-benzimidazole-6-carboxylic acid], for which, in assay [2], the EC50 was 2900 nM and the Emax came to 88%.

As for `Cn1cc(CCn2c(CN3CCC(c4cccc(OCc5ccc(Cl)cc5F)n4)CC3)nc3ccc(C(=O)O)cc32)nn1` [Compound 319B, 2-[(4-{6-[(4-chloro-2-fluorobenzyl)oxy]pyridin-2-yl}piperidin-1-yl)methyl]-1-[2-(1-methyl-1H-1,2,3-triazol-4-yl)ethyl]-1H-benzimidazole-6-carboxylicacid], in assay [2], the EC50 was found to be 1100 nM and the Emax was determined as 47%.

As to `Cn1c(CN2CCC(c3cccc(OCc4ccc(F)cc4F)n3)CC2)nc2ccc(C(=O)O)cc21` [Compound 223B, 2-[(4-{6-[(2,4-difluorobenzyl)oxy]pyridin-2-yl}piperidin-1-yl)methyl]-1-methyl-1H-benzimidazole-6-carboxylic acid], in assay [2], it took 170 nM to reach a half-maximal effect (EC50) and the Emax amounted to 69%.

Compound `COC1(Cn2c(CN3CCC(c4cccc(OCc5ccc(Cl)cc5F)n4)CC3)nc3ccc(C(=O)O)cc32)CCC1` [Compound 177B, 2-[(4-{6-[(4-chloro-2-fluorobenzyl)oxy]pyridin-2-yl}piperidin-1-yl)methyl]-1-[(1-methoxycyclobutyl)methyl]-1H-benzimidazole-6-carboxylic acid] had an EC50 in assay [2] of 880 nM.

Compound `O=C(O)c1ccc2nc(CN3CCC(c4cccc(OCc5ccc(Cl)cc5F)n4)CC3)n(Cc3cnoc3)c2c1` [Compound 270B, 2-[(4-{6-[(4-chloro-2-fluorobenzyl)oxy]pyridin-2-yl}piperidin-1-yl)methyl]-1-(1,2-oxazol-4-ylmethyl)-1H-benzimidazole-6-carboxylic acid] had an EC50 in assay [2] of more than 20000 nM.

As for `COCCn1c(CN2CCC(c3cccc(OCc4ccc(C#N)cc4)n3)CC2)nc2ccc(C(=O)O)c(F)c21` [Compound 169B, 2-[(4-{6-[(4-cyanobenzyl)oxy]pyridin-2-yl}piperidin-1-yl)methyl]-7-fluoro-1-(2-methoxyethyl)-1H-benzimidazole-6-carboxylic acid], in assay [2], the concentration giving a half-maximal response (EC50) is 1200 nM and the Emax was found to be 78%.

As to `CCn1cncc1Cn1c(CN2CCC(c3cccc(OCc4ccc(C#N)cc4F)n3)CC2)nc2ccc(C(=O)O)nc21` [Compound 273B, 2-[(4-{6-[(4-cyano-2-fluorobenzyl)oxy]pyridin-2-yl}piperidin-1-yl)methyl]-3-[(1-ethyl-1H-imidazol-5-yl)methyl]-3H-imidazo[4,5-b]pyridine-5-carboxylic acid], the EC50 in assay [2] is more than 20000 nM.

In the case of `Cn1cc(CCn2c(CN3CCC(c4cccc(OCc5ccc(Cl)cc5F)n4)CC3)nc3ccc(C(=O)O)cc32)cn1` [Compound 307B, 2-[(4-{6-[(4-chloro-2-fluorobenzyl)oxy]pyridin-2-yl}piperidin-1-yl)methyl]-1-[2-(1-methyl-1H-pyrazol-4-yl)ethyl]-1H-benzimidazole-6-carboxylic acid], in assay [2], a half-maximal effect (EC50) was put at 210 nM and the Emax is 77%.

Turning to `O=C(O)c1ccc2nc(CN3CCC(c4cccc(OCc5ccc(Cl)cc5F)n4)CC3)n(Cc3cnc[nH]3)c2c1` [Compound 312B, 2-[(4-{6-[(4-chloro-2-fluorobenzyl)oxy]pyridin-2-yl}piperidin-1-yl)methyl]-1-(1H-imidazol-5-ylmethyl)-1H-benzimidazole-6-carboxylic acid], in assay [2], the EC50 was 380 nM and the Emax is 68%.

For the compound `Cc1nc(C(C)n2c(CN3CCC(c4cccc(OCc5ccc(Cl)cc5F)n4)CC3)nc3ccc(C(=O)O)cc32)n[nH]1` (stereo not drawn) [Compound 342B, 2-[(4-{6-[(4-chloro-2-fluorobenzyl)oxy]pyridin-2-yl}piperidin-1-yl)methyl]-1-[1-(5-methyl-1H-1,2,4-triazol-3-yl)ethyl]-1H-benzimidazole-6-carboxylic acid], in assay [2], the EC50 is 1300 nM and the Emax amounted to 42%.

For the compound `CO[C@@H]1CCC[C@H]1n1c(CN2CCC(c3cccc(OCc4ccc(Cl)cc4F)n3)CC2)nc2ccc(C(=O)O)cc21` (stereo in doubt) [Compound 194B, 2-[(4-{6-[(4-chloro-2-fluorobenzyl)oxy]pyridin-2-yl}piperidin-1-yl)methyl]-1-[(1R,2R)-2-methoxycyclopentyl]-1H-benzimidazole-6-carboxylic acid], in assay [2], the EC50 is 75 nM and the Emax stood at 69%.

The compound `COCCn1c(CN2CCN(c3ccc(F)c(OCc4ccc(Cl)cc4F)n3)CC2C)nc2ccc(C(=O)O)cc21` (stereo in doubt) [Compound 174B, 2-{[(2S)-4-{6-[(4-chloro-2-fluorobenzyl)oxy]-5-fluoropyridin-2-yl}-2-methylpiperazin-1-yl]methyl}-1-(2-methoxyethyl)-1H-benzimidazole-6-carboxylic acid] showed an EC50 in assay [2] of 870 nM. This lies in the sub-micromolar range.

In the case of `CN1CCOC(Cn2c(CN3CCC(c4cccc(OCc5ccc(Cl)cc5F)n4)CC3)nc3ccc(C(=O)O)cc32)C1` (stereo not drawn) [Compound 338B, 2-[(4-{6-[(4-chloro-2-fluorobenzyl)oxy]pyridin-2-yl}piperidin-1-yl)methyl]-1-[(4-methylmorpholin-2-yl)methyl]-1H-benzimidazole-6-carboxylic acid], the concentration for a half-maximal effect (EC50) in assay [2] was more than 20000 nM.

As for `Cc1cc(Cn2c(CN3CCC(c4cccc(OCc5ccc(Cl)cc5F)n4)CC3)nc3ccc(C(=O)O)cc32)on1` [Compound 322B, 2-[(4-{6-[(4-chloro-2-fluorobenzyl)oxy]pyridin-2-yl}piperidin-1-yl)methyl]-1-[(3-methyl-1,2-oxazol-5-yl)methyl]-1H-benzimidazole-6-carboxylic acid], in assay [2], a half-maximal effect (EC50) was put at 1400 nM and the Emax was found to be 97%.

As to `COC[C@H](C)n1c(CN2CCC(c3cccc(OCc4ccc(Cl)cc4F)n3)CC2)nc2ccc(C(=O)O)cc21` [Compound 320B, 2-[(4-{6-[(4-chloro-2-fluorobenzyl)oxy]pyridin-2-yl}piperidin-1-yl)methyl]-1-[(2S)-1-methoxypropan-2-yl]-1H-benzimidazole-6-carboxylic acid], in assay [2], the response was half-maximal at 1100 nM (EC50) and the Emax came to 65%.

As to `Cc1n[nH]c(CCn2c(CN3CCC(c4cccc(OCc5ccc(Cl)cc5F)n4)CC3)nc3ccc(C(=O)O)cc32)n1` [Compound 341B, 2-[(4-{6-[(4-chloro-2-fluorobenzyl)oxy]pyridin-2-yl}piperidin-1-yl)methyl]-1-[2-(3-methyl-1H-1,2,4-triazol-5-yl)ethyl]-1H-benzimidazole-6-carboxylic acid], in assay [2], the midpoint of the response, the EC50, lay at 250 nM and the Emax was found to be 64%.

Take `Cn1c(CN2CCC(c3cccc(OCc4ccc(C(F)(F)F)cc4F)n3)CC2)nc2ccc(C(=O)O)cc21` [Compound 222B, 2-{[4-(6-{[2-fluoro-4-(trifluoromethyl)benzyl]oxy}pyridin-2-yl)piperidin-1-yl]methyl}-1-methyl-1H-benzimidazole-6-carboxylic acid]: in assay [2], the EC50 amounted to 130 nM and the Emax worked out at 72%.
